Data on seven molecules can be found in PMC4944999 (PLoS ONE, 2016).

Series [1] deals with Recombinant neuraminidase of Influenza A virus (A/Aichi/2/1968, H3N2). It is filed as biochemical.
Series [2] concerns Aichi H3N2 binding to fetuin. Briefly: SPR inhibition of virus binding to immobilized fetuin. Details: species or system Influenza A/Aichi/2/68 H3N2. To be noted: Aichi H3N2 binding to fetuin-immobilized SPR surface, virus preincubated with inhibitor 37°C at least 15 min, four parameter logistic fit, mean ± SEM n≥2. As to the method:
Measurements were performed on a Biacore™ T200 (GE-Healthcare Bio-Sciences AB) using CM5 chips, and running buffer HBSP (10 mM Hepes, 150 mM NaCl, 0.05% Tween 20, pH 7.4) at 25°C. Peptides and proteins were immobilized via amine coupling with EDC/NHS at a flow rate of 10 μl min^-1, according to the manufacturer’s instructions (GE Healthcare). Optimum preconcentration was evaluated before, using acetate and phosphate buffers (10 mM) of pH 4 to 7, and ligand concentrations of 10 μg ml^-1. For the immobilization of biotinylated sialyllactose (Lectinity), neutravidin (Thermo Fisher Scientific) (100 μg ml^-1) was immobilized by amine coupling at pH 5.5 enabling high ligand density. Biotinylated sialyllactose was then injected at a concentration of 10 μg ml^-1 in HBSP for 3 min.
A constant concentration of 50 or 100 μg ml^-1 Aichi H3N2 virus was used as analyte, while the concentration of the inhibitors was varied. The suspensions of virus and inhibitor were mixed and subsequently incubated on a Thriller® thermoshaker at 500 rpm and 37°C for at least 15 min to reach equilibrium before injection on the SPR surface. The inhibitors used were peptides or α-2,3’- and α-2,6’-sialyllactose (Carbosynth). […] Inhibition was calculated against the mean value of at least five binding events with the virus alone, using the sigmoidal four parameter logistic fit (Origin).

The target of the next series is T1, HA from Aichi H3N2 (Influenza A virus, UniProt P03437).
T1 construct: purchased Sino Biological 11707-V08H
As to the kind of experiment: biochemical. It is filed as binding, Influenza A/Aichi/2/68 H3N2.

The subject of a further series is Aichi H3N2 virus. It is filed as binding, Influenza A/Aichi/2/68 H3N2 X31. To be noted: for Virus binding on peptide-modified surfaces: pH 7.4.
The conditions of series [3]: due to its amphiphilic character; cited from earlier work.
A further series deals with Aichi H3N2. It is filed as cell-based, Influenza A/Aichi/2/68 H3N2.
The target in series [4] is hemagglutinin (HA) of low pathogenic influenza A/Mute Swan/Rostock/R901/2006 H7N1 K3141, on virus particles (influenza A virus A/Mute Swan/Rostock/R901/2006 H7N1).
The target is the same in series [5]. As to the kind of experiment: SPR. A general note: SPR reads the build-up and loss of mass on a sensor chip optically.

Counter-ions that a name gives are not always drawn. Where no end group is shown, it is not given here.

Consider `CC(=O)N[C@H]1[C@H]([C@H](O)[C@H](O)CO)OC(C(=O)O)=C[C@@H]1O` [DANA, N-acetyl-2,3-dehydro-2-deoxy-neuraminic acid disodium salt], for which the IC50 (commonly the concentration that inhibits the measured activity by half) in series [1] was 2.2 ± 0.3 µM.

Turning to ARDFYDYDVFYYAMD-NH2 [PeB], the figures for the IC50 in series [2] and in series [2] (listed as PeB^GF) were 75 ± 13 µM and 13 ± 3 µM, respectively. Besides, binding at HA from Aichi H3N2 was characterised by a dissociation constant (Kd) of 56.8 µM.

For LGVIWAGGNTNY [PeC], in the series with Aichi H3N2 virus, the “Minimum detection level (lowest virus concentration showing binding 3 times above the SPR response of a buffer control)” value is 6.25 μg Aichi H3N2 virus protein ml^-1 and the “Virus binding on peptide-modified surfaces” value is listed as “Significant virus binding”.

Consider RRKKAAVALLPAVLLALLAP [EB], for which the Micelle formation entry in series [3] is given as “forms micelles”. Also, the “fold lower Ki(HAI) as compared to PeB^GF” value in the series on Aichi H3N2 is reported as 20 fold.

As for SGFLLISNGVHWV-NH2 [PeA], the “Virus binding on peptide-modified surfaces” value in the series on Aichi H3N2 virus is “not”.

ARDFYGYDVFFYAMD-NH2 [PeB^GF (…-amide)] displayed an IC50 of microneutralization of Rostock H7N1 on MDCK II cells in series [4] of 96 µM. Also, the IC50 in series [5] was 30 µM.

As to ARDFYDYDVFYYAMD-NH2 [PeB (…-amide)], in series [4], the IC50 of microneutralization of Rostock H7N1 on MDCK II cells was 177 µM. The same molecule registered an IC50 in series [5] of 40 µM.
